Measurements from patent US9249132B2, “Substituted bicyclic aromatic compounds as S-nitrosoglutathione reductase inhibitors” (Nivalis Therapeutics, Inc., priority 2010, dated 2016).

Legend:
GSNOR = molecular target: T1, GSNOR (Homo sapiens, UniProt P11766); test: GSNOR assay (inhibition of GSNOR activity, change in 340 nm absorbance); type: biochemical; settings: 100 mM NaPO4 pH 7.4, 0.240 mM GSNO, 0.300 mM NADH, 0.5 μg/mL GSNO Reductase, 1% DMSO, 25° C.
T1 construct: made in house; host or cells: E. coli
Description: Various compounds were tested in vitro for their ability to inhibit GSNOR activity.
GSNOR expression and purification is described in Biochemistry 2000, 39, 10720-10729.
GSNOR Fermentation: Pre-cultures were grown from stabs of a GSNOR glycerol stock in 2XYT media containing 100 ug/ml ampicillin after an overnight incubation at 37° C. Cells were then added to fresh 2XYT (4 L) containing ampicillin and grown to an OD (A600) of 0.6-0.9 at 37° C. before induction. GSNOR expression was induced with 0.1% arabinose in an overnight incubation at 20° C.
GSNOR Purification: E. coli cell paste was lysed by nitrogen cavitation and the clarified lysate purified by Ni affinity chromatography on an AKTA FPLC (Amersham Pharmacia). The column was eluted in 20 mM Tris pH 8.0/250 mM NaCl with a 0-500 mM imidazole gradient. Eluted GSNOR fractions containing the Smt-GSNOR fusion were digested overnight with Ulp-1 at 4° C. to remove the affinity tag then re-run on the Ni column under the same conditions. GSNOR was recovered in the flowthrough fraction and for crystallography is further purified by Q-Sepharose and Heparin flowthrough chromatography in 20 mM Tris pH 8.0, 1 mM DTT, 10 uM ZnSO4.
GSNOR Assay: GSNO and enzyme/NADH Solutions are made up fresh each day. The solutions are filtered and allowed to warm to room temperature. GSNO solution: 100 mM NaPO4 (pH 7.4), 0.480 mM GSNO. 396 μL of GSNO Solution is added to a cuvette followed by 8 μL of test compound in DMSO (or DMSO only for full reaction control) and mixed with the pipette tip. Compounds to be tested are made up at a stock concentration of 10 mM in 100% DMSO. 2 fold serial dilutions are done in 100% DMSO. 8 μL of each dilution are added to an assay so that the final concentration of DMSO in the assay is 1%. The concentrations of compounds tested range from 100 to 0.003 μM. Enzyme/NADH solution: 100 mM NaPO4 (pH 7.4), 0.600 mM NADH, 1.0 μg/mL GSNO Reductase. 396 μL of the Enzyme/NADH solution is added to the cuvette to start the reaction. The cuvette is placed in the Cary 3E UV/Visible Spectrophotometer and the change in 340 nm absorbance/min at 25° C. is recorded for 3 minutes. The assays are done in triplicate for each compound concentration. IC50's for each compound are calculated using the standard curve analysis in the Enzyme Kinetics Module of SigmaPlot.
Final assay conditions: 100 mM NaPO4, pH 7.4, 0.240 mM GSNO, 0.300 mM NADH, 0.5 μg/mL GSNO Reductase, and 1% DMSO. Final volume: 800 μL/cuvette.

[1] = Mouse pharmacokinetic (PK) study; type: in vivo; settings: plasma, male BALB/c mice, PO 10 mg/kg, IV 2 mg/kg
Text: The mouse was used to determine the pharmacokinetics of compounds of the invention. This species is widely used to assess the bioavailability of compounds by administering both oral (PO) and intravenous (IV) test articles. Efficacy of the compounds of the invention was compared by assessing plasma exposure in male BALB/c mice either via IV or PO administration at the times of peak activity.
Compounds of the invention were reconstituted in a phosphate buffered saline (PBS)/10% Solutol (HS 15) clear solution resulting in a concentration of 0.2 mg/mL and administered to mice (2 mg/kg) as a single IV dose. Animals were dosed via the lateral tail vein. […] The plasma was transferred into labeled polypropylene tubes and frozen at −70° C. until analyzed by LC/MS/MS.
The compounds of the invention were reconstituted in 40% Propylene Glycol/40% Propylene Carbonate/20% of a 5% Sucrose clear solution resulting in a concentration of 2 mg/mL and administered to mice (10 mg/kg) as a single oral dose via gavage. […] The plasma was transferred into labeled polypropylene tubes and frozen at −70° C. until analyzed by LC/MS/MS.
Plasma samples at each timepoint were analyzed using a LC-MS/MS with a lower limit of quantification (LLOQ) of 1 ng/mL. […]
In addition to the above PK parameters, bioavailability (% F) was calculated.

[2] = tested on: dextran sodium sulfate (DSS)-induced IBD; test: Acute prophylactic model of DSS-induced IBD; type: in vivo, mouse
Text: Acute and chronic models of dextran sodium sulfate (DSS)-induced IBD in mice were used to explore efficacy of GSNORi against this disease. Acute and chronic DSS-induced IBD are widely used and well characterized models that induce pathological changes in the colon similar to those observed in the human disease. In these models and in human disease, epithelial cells within the crypts of the colon are disrupted, leading to dysfunction of the epithelial barrier and the ensuing tissue inflammation, edema, and ulceration. GSNORi therapy may benefit IBD by restoring s-nitrosoglutathione (GSNO) levels, and thus prevent or reverse the epithelial barrier dysfunction. Experimental IBD was induced by administration of DSS in the drinking water of male C57B1/6 mice (N=8 to 10 mice per group) for 6 consecutive days. GSNORi was dosed orally at doses of 0.1 to 10 mg/kg/day for 10 days starting two days prior to and continuing two days post DSS exposure. Two days post DSS exposure, the effect of GSNORi was assessed in a blinded fashion via endoscopy and histopathology using a five point scale ranging from a score=0 (normal tissue) through a score=4 (ulcerative tissue damage and marked pathological changes). Levels of circulating cytokines involved in inflammatory pathways were also assessed. The effect of GSNORi was compared to vehicle treated controls. The corticosteroid, prednisolone, was used as the positive control in this study and was administered daily at 3 mg/kg/day via oral dosing. Naïve mice (N=5) were also assessed as a normal tissue control.

T1 sequence (P11766 whole entry): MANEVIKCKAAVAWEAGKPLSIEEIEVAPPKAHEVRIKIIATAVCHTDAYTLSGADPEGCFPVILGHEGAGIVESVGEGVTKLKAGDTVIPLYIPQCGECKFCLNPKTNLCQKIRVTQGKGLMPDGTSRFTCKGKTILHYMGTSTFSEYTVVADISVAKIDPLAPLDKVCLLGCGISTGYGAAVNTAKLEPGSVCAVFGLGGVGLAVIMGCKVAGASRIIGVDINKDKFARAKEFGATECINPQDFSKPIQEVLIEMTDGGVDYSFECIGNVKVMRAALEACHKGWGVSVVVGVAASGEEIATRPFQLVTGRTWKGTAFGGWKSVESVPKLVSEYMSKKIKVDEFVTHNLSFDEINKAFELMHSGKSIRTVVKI

Compound | IC50 (GSNOR) | other results
O=C(O)c1ccc(-c2ccc3cc(O)ccc3c2)c(F)c1 [Example 2, 3-fluoro-4-(6-hydroxynaphthalen-2-yl)benzoic acid] | < 50 nM | bioavailability [1]: > 40%; colon injury (in words) ([2]; acute DSS-induced IBD): attenuated colon injury; decrease of percent of mice presenting with severe colon injury scores via histopathology, of vehicle control ([2]; acute model, oral 10 mg/kg/day for 10 consecutive days, prophylactic dosing regimen): 26%; decrease of percent of mice presenting with severe endoscopy scores, of vehicle control ([2]; acute model, oral 10 mg/kg/day for 10 days, p<0.05): 58%
COc1cc(C(=O)O)ccc1-c1ccc2cc(O)ccc2c1 [Example 3, 4-(6-hydroxynaphthalen-2-yl)-3-methoxybenzoic acid] | < 100 nM | 
CN(C)c1cc(C(=O)O)ccc1-c1ccc2cc(O)ccc2c1 [Example 5, 3-(dimethylamino)-4-(6-hydroxynaphthalen-2-yl)benzoic acid] | < 100 nM | 
N#Cc1cc(C(=O)O)ccc1-c1ccc2cc(O)ccc2c1 [Example 6, 3-cyano-4-(6-hydroxynaphthalen-2-yl)benzoic acid] | < 50 nM | 
O=C(O)c1ccc(-c2ccc3cc(O)ccc3c2Br)cc1 [Example 12, 4-(1-bromo-6-hydroxynaphthalen-2-yl)benzoic acid] | < 50 nM | 
N#Cc1c(-c2ccc(C(=O)O)cc2)ccc2cc(O)ccc12 [Example 15, 4-(1-cyano-6-hydroxynaphthalen-2-yl)benzoic acid] | < 50 nM | 
O=C(O)c1ccc(-c2ccc3cc(O)ccc3c2Cl)cc1 [Example 17, 4-(1-chloro-6-hydroxynaphthalen-2-yl)benzoic acid] | < 50 nM | 
Oc1ccc2cc(-c3ccc(-c4nnn[nH]4)cc3)ccc2c1 [Example 18, 6-(4-(1H-tetrazol-5-yl)phenyl)naphthalen-2-ol] | < 100 nM | 
O=C(O)c1ccc(-c2ccc3cc(O)ccc3c2)c(C(F)(F)F)c1 [Example 20, 4-(6-hydroxynaphthalen-2-yl)-3-(trifluoromethyl)benzoic acid] | < 100 nM | 
O=C(O)c1ccc(-c2cc3ccc(O)cc3cc2F)c(Cl)c1 [Example 21, 3-chloro-4-(3-fluoro-6-hydroxynaphthalen-2-yl)benzoic acid] | < 50 nM | 
O=C(O)c1ccc(-c2cc3ccc(O)cc3cc2Cl)cc1 [Example 22, 4-(3-chloro-6-hydroxynaphthalen-2-yl)benzoic acid] | < 50 nM | 
O=C(O)c1ccc(-c2cc3ccc(O)cc3cc2F)cc1 [Example 23, 4-(3-fluoro-6-hydroxynaphthalen-2-yl)benzoic acid] | < 50 nM | 
COc1c(-c2ccc(C(=O)O)cc2)ccc2cc(O)ccc12 [Example 24, 4-(6-hydroxy-1-methoxynaphthalen-2-yl)benzoic acid] | < 100 nM | 
O=C(O)c1ccc(-c2ccc3cc(O)ccc3c2F)cc1 [Example 25, 4-(1-fluoro-6-hydroxynaphthalen-2-yl)benzoic acid] | < 50 nM | 
Cc1cc2cc(O)ccc2cc1-c1ccc(C(=O)O)cc1 [Example 26, 4-(6-hydroxy-3-methylnaphthalen-2-yl)benzoic acid] | < 100 nM | 
N#Cc1c(-c2ccc(C(=O)O)cc2)ccc2c(F)c(O)ccc12 [Example 27, 4-(1-cyano-5-fluoro-6-hydroxynaphthalen-2-yl)benzoic acid] | < 50 nM | 
N#Cc1c(-c2ccc(C(=O)O)cc2F)ccc2cc(O)ccc12 [Example 28, 4-(1-cyano-6-hydroxynaphthalen-2-yl)-3-fluorobenzoic acid] | < 50 nM | 
O=C(O)c1ccc(-c2ccc3c(F)c(O)ccc3c2)c(Cl)c1 [Example 29, 3-chloro-4-(5-fluoro-6-hydroxynaphthalen-2-yl)benzoic acid] | < 50 nM | 
O=C(O)c1ccc(-c2ccc3c(F)c(O)ccc3c2)cc1 [Example 30, 4-(5-fluoro-6-hydroxynaphthalen-2-yl)benzoic acid] | < 50 nM | 
O=C(O)c1ccc(-c2ccc3c(F)c(O)ccc3c2)c(F)c1 [Example 31, 3-fluoro-4-(5-fluoro-6-hydroxynaphthalen-2-yl)benzoic acid] | < 50 nM | 
Cc1cc(C(=O)O)ccc1-c1ccc2c(F)c(O)ccc2c1 [Example 32, 4-(5-fluoro-6-hydroxynaphthalen-2-yl)-3-methylbenzoic acid] | < 50 nM | 
O=C(O)c1ccc(-c2ccc3cc(O)ccc3c2)cc1 [Example 33, 4-(6-hydroxynaphthalen-2-yl)benzoic acid] | < 100 nM | 
